# Experimental data as given in ChEMBL document CHEMBL3132804, “Synthesis and biological evaluation of novel quinoxalinone-based HIV-1 reverse transcriptase inhibitors” (Medchemcomm, 2014).
# How the values were obtained:
# [1] = tested on: Human immunodeficiency virus 1; assay: Antiviral activity against wild type HIV1 VSVG infected in 293ET cells assessed as inhibition of viral replication by luciferase reporter gene assay; assay type: functional, organism-based
# [2] = tested on: Human immunodeficiency virus 1; assay: Selectivity ratio of IC50 for HIV1 VSVG harboring reverse transcriptase Y181C mutant to IC50 for wild type HIV1 VSVG; assay type: functional
# [3] = tested on: Human immunodeficiency virus 1; assay: Selectivity ratio of IC50 for HIV1 VSVG harboring reverse transcriptase K103N mutant to IC50 for wild type HIV1 VSVG; assay type: functional
# [4] = tested on: Human immunodeficiency virus 1; assay: Antiviral activity against HIV1 VSVG harboring reverse transcriptase Y181C mutant infected in 293ET cellsassessed as inhibition of viral replication by luciferase reporter gene assay; assay type: functional, organism-based
# [5] = tested on: Human immunodeficiency virus 1; assay: Antiviral activity against HIV1 VSVG harboring reverse transcriptase K103N mutant infected in 293ET cells assessed as inhibition of viral replication by luciferase reporter gene assay; assay type: functional, organism-based
# [6] = Human immunodeficiency virus 1, VSVG, 293ET, read-out: IC50
Compound,"IC50 [1, 6]",Ratio IC50 [2],Ratio IC50 [3],IC50 [4],IC50 [5],IC50 ([1]; 293et)
COC(=O)c1sc(-c2cccs2)cc1S(=O)(=O)N1c2cc(Cl)ccc2NC(=O)C1C (stereo unspecified),6.53 µM,–,–,–,–,–
COC(=O)c1sc(-c2ccco2)cc1S(=O)(=O)N1c2cc(Cl)ccc2NC(=O)C1C (stereo unspecified),1.97 µM,>5,>5,> 10 µM,> 10 µM,–
CC1C(=O)Nc2ccc(Cl)cc2N1S(=O)(=O)c1ccsc1C(=O)O (stereo unspecified),–,–,–,–,–,Not Active
CC1C(=O)Nc2ccc(Cl)cc2N1S(=O)(=O)c1cc(Cl)sc1C(=O)O (stereo unspecified),–,–,–,–,–,Not Active
CC(C)OC(=O)c1sccc1S(=O)(=O)N1c2cc(Cl)ccc2NC(=O)C1C (stereo unspecified),1.09 µM,>9,>9,> 10 µM,> 10 µM,–
CC(C)=CCOC(=O)c1sccc1S(=O)(=O)N1c2cc(Cl)ccc2NC(=O)C1C (stereo unspecified),0.77 µM,>13,>13,> 10 µM,> 10 µM,–
CC(C)OC(=O)c1sc(Cl)cc1S(=O)(=O)N1c2cc(Cl)ccc2NC(=O)C1C (stereo unspecified),5.55 µM,–,–,–,–,–
CON(C)C(=O)c1sccc1S(=O)(=O)N1c2cc(Cl)ccc2NC(=O)C1C (stereo unspecified),–,–,–,–,–,Not Active
CC(C)NC(=O)c1sccc1S(=O)(=O)N1c2cc(Cl)ccc2NC(=O)C1C (stereo unspecified),–,–,–,–,–,Not Active
CC1C(=O)Nc2ccc(Cl)cc2N1S(=O)(=O)c1ccsc1CO (stereo unspecified),–,–,–,–,–,Not Active
CC1C(=O)Nc2ccc(Cl)cc2N1S(=O)(=O)c1cc(Cl)sc1CO (stereo unspecified),–,–,–,–,–,Not Active
CC1C(=O)Nc2ccc(Cl)cc2N1S(=O)(=O)c1ccsc1C=O (stereo unspecified),–,–,–,–,–,Not Active
CC1C(=O)Nc2ccc(Cl)cc2N1S(=O)(=O)c1cc(Cl)sc1C=O (stereo unspecified),–,–,–,–,–,Not Active
CC1C(=O)Nc2ccc(Cl)cc2N1S(=O)(=O)c1ccsc1/C=N\c1nccs1 (stereo unspecified),–,–,–,–,–,Not Active
CC1C(=O)Nc2ccc(Cl)cc2N1S(=O)(=O)c1cc(Cl)sc1/C=N\c1nccs1 (stereo unspecified),–,–,–,–,–,Not Active
CC1C(=O)Nc2ccc(Cl)cc2N1S(=O)(=O)c1cc(Cl)sc1-c1cnco1 (stereo unspecified),4.44 µM,–,–,–,–,–
CC1C(=O)Nc2ccc(Cl)cc2N1S(=O)(=O)c1ccsc1CNc1nccs1 (stereo unspecified),–,–,–,–,–,Not Active
CC1C(=O)Nc2ccc(Cl)cc2N1S(=O)(=O)c1cc(Cl)sc1CNc1nccs1 (stereo unspecified),–,–,–,–,–,Not Active
COC(=O)c1sc(Cl)cc1S(=O)(=O)N1c2cc(Cl)ccc2NC(=O)C1C (stereo unspecified),0.07 µM,>143,113,> 10 µM,7.94 µM,–
COC(=O)c1sc(Br)cc1S(=O)(=O)N1c2cc(Cl)ccc2NC(=O)C1C (stereo unspecified),0.13 µM,>77,49,> 10 µM,6.39 µM,–
COC(=O)c1sc(I)cc1S(=O)(=O)N1c2cc(Cl)ccc2NC(=O)C1C (stereo unspecified),0.075 µM,>133,89,> 10 µM,6.68 µM,–
COC(=O)c1sc(-c2ccccc2)cc1S(=O)(=O)N1c2cc(Cl)ccc2NC(=O)C1C (stereo unspecified),9.05 µM,–,–,–,–,–
COC(=O)c1sc(-c2cccc(OC)c2)cc1S(=O)(=O)N1c2cc(Cl)ccc2NC(=O)C1C (stereo unspecified),9.68 µM,–,–,–,–,–
COC(=O)c1sccc1S(=O)(=O)N1c2cc(Cl)ccc2NC(=O)C1C (stereo unspecified),–,>50,13,> 10 µM,2.6 µM,–
Cc1ccnc2c1NC(=O)c1cccnc1N2C1CC1 [NEVIRAPINE],0.04 µM,>250,32,> 10 µM,1.29 µM,–
